Laboratory results taken from US20070037238A1, “Composition for suppressing PQQGDH reaction inhibition” (Toyo Boseki Kabushiki Kaisha, priority 2005, published 2007).

Tested on: PQQGDH
Assay: Measurement with glucose electrodes
Type: biochemical
Details: 0.1 M potassium ferricyanide, D-glucose 5-40 mM, 25° C., +0.35 V
Method: 0.5 g of carbon graphite and 0.3 mL of fluid paraffin were ground well with a mortar and pestle to form a carbon paste. This carbon paste was spread on a platinum electrode, and 10 μL of PQQGDH solution (Toyo Boseki GLD-331, 2,000 U/mL) was placed thereon and air-dried for 30 minutes at room temperature. This electrode was covered with a semipermeable cellulose membrane (molecular weight cut-off 8.000), and the semipermeable membrane was fixed with an O-ring to prepare a glucose electrode. This glucose electrode was used after having been soaked for 30 minutes or more in the buffer used for measurement. […] After about 5 minutes when the response current was confirmed to have stabilized, a D-glucose solution was added and the rise in the response current was monitored. […] The theoretical values here are the response value at each concentration calculated based on measurement values at 5 mM, assuming that the D-glucose amount and measurement value are proportional, and these are given as straight lines in the figures. The response values were more linear when pimelic acid and succinic acid were added in comparison to the solution of phosphoric acid and glutaric acid alone, and the actual measured response values at glucose concentrations of 30 mM or more are particularly close to the corresponding theoretical values.

O=C(O)CCCCCC(=O)O [pimelic acid]
linearity of glucose electrode response values versus D-glucose concentration (1% pimelic acid in 50 mM potassium phosphate buffer pH 7.0 (Buffer B vs Buffer A)): more linear

O=C(O)CCC(=O)O [succinic acid]
linearity of glucose electrode response values versus D-glucose concentration (1% succinic acid in 50 mM glutaric acid pH 7.0 (Buffer D vs Buffer C)): more linear
